# Read-outs that look alike come from different tables or passages of the source.
# What was measured:
# Type in all cases: in vivo
# [1] = system: barnyardgrass (Echinochloa crus-galli); assay: Test C flooded paddy test plant response; settings: Echinochloa crus-galli; Flood, 250 g ai/ha; scale of 0 to 100 where 0 is no effect and 100 is complete control; 13 to 15 days; read-out: Barnyardgrass plant response rating
# How it was run: (§1)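 Flooded-pot format, 3 cm water over soil maintained for the test duration; test compounds dispensed into the water at the 2-leaf stage. Greenhouse holding 13 to 15 days. Plants evaluated visually relative to untreated controls, 0 meaning no effect and 100 complete control.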
# [2] = system: rice (Oryza sativa); assay: Test C flooded paddy test plant response; settings: Oryza sativa; Flood, 250 g ai/ha; scale of 0 to 100 where 0 is no effect and 100 is complete control; 13 to 15 days; read-out: Rice plant response rating
# How it was run: as §1
# [3] = system: small-flower umbrella sedge (Cyperus difformis); assay: Test C flooded paddy test plant response; settings: Cyperus difformis; Flood, 250 g ai/ha; scale of 0 to 100 where 0 is no effect and 100 is complete control; 13 to 15 days; read-out: Sedge, Umbrella plant response rating
# How it was run: as §1
# [4] = system: ducksalad (Heteranthera limosa); assay: Test C flooded paddy test plant response; settings: Heteranthera limosa; Flood, 250 g ai/ha; scale of 0 to 100 where 0 is no effect and 100 is complete control; 13 to 15 days; read-out: Ducksalad plant response rating
# How it was run: as §1
# [5] = system: wild oat (Avena fatua); assay: Test D postemergence plant response; settings: Avena fatua, post-emergence
# How it was run: (§2)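 Postemergence spray on plants 2–18 cm tall (1- to 4-leaf stage), grown in pots of peat/vermiculite medium. Plants were kept in a greenhouse for 13–15 days, then visually rated against untreated controls on a 0 (no effect) to 100 (complete control) scale.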
# [6] = system: kochia (Kochia scoparia); assay: Test D postemergence plant response; settings: Bassia scoparia, post-emergence
# How it was run: as §2
# [7] = system: chickweed (common chickweed, Stellaria media); assay: Test D postemergence plant response; settings: Stellaria media, post-emergence
# How it was run: as §2
# [8] = system: blackgrass (Alopecurus myosuroides); assay: Test B postemergence plant response
# How it was run: (§3)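 Seedlings in a loam soil and sand mix received a postemergence application of the formulated chemicals at the one- to two-leaf stage (2–10 cm tall). They were kept in a greenhouse for roughly 10 days, then scored for injury relative to untreated plants, 0 meaning no effect and 100 complete control.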
# [9] = system: galium (catchweed bedstraw, Galium aparine); assay: Test B postemergence plant response
# How it was run: as §3
# [10] = system: ragweed (common ragweed, Ambrosia elatior); assay: Test B pre-/postemergence plant response
# How it was run: (§4)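 Ratings reflect visual injury versus untreated controls, from 0 for no effect to 100 for complete control, assessed roughly 10 days after treatment. Formulation: non-phytotoxic solvent mix with surfactant; pre- and postemergence sprays on plants grown in loam soil and sand.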
# [11] = system: kochia (Kochia scoparia); assay: Test B pre-/postemergence plant response
# How it was run: as §4
# [12] = system: barnyardgrass (Echinochloa crus-galli); assay: Test B pre-/postemergence plant response; settings: for pest or weed control at 31 g/ha: 31 g ai/ha
# How it was run: as §4
# [13] = system: giant foxtail (Setaria faberii); assay: Test B pre-/postemergence plant response; settings: for pest or weed control at 31 g/ha: 31 g ai/ha
# How it was run: as §4
# [14] = system: pigweed (Amaranthus retroflexus); assay: Test B pre-/postemergence plant response; settings: for pest or weed control at 31 g/ha: 31 g ai/ha
# How it was run: as §4
# [15] = system: corn (Zea mays); assay: Test B pre-/postemergence plant response; settings: Zea mays, post-emergence, 240 h
# How it was run: as §4
# [16] = system: Italian ryegrass (Lolium multiflorum); assay: Test B pre-/postemergence plant response
# How it was run: as §4
# [17] = system: wheat (Triticum aestivum); assay: Test B pre-/postemergence plant response; settings: Triticum aestivum, post-emergence, 240 h, read-out: Plant response rating, Wheat
# How it was run: as §4
# [18] = 125 g ai/ha, postemergence, 0 to 100 scale, 0 no effect, 100 complete control
# [19] = Postemergence, 31 g ai/ha, 0 to 100 scale (0 no effect, 100 complete control)
# [20] = 31 g ai/ha, Preemergence, 0 to 100 scale where 0 is no effect and 100 is complete control
# [21] = Preemergence, 125 g ai/ha, 0 to 100 scale (0 no effect, 100 complete control)
smiles,measurement,setting,value
"Fc1cccc(Oc2ncc(Br)cn2)c1-c1cc(C(F)F)no1 [Compound 145, 5-bromo-2-[2-[3-(difluoromethyl)-5-isoxazolyl]-3-fluorophenoxy]pyrimidine]",pest or weed control at 250 g/ha,[1],45%
same,plant injury at 250 g/ha,[2],35%
same,pest or weed control at 250 g/ha,[3],95%
same,pest or weed control at 250 g/ha,[4],90%
same,pest or weed control at 31 g/ha,"[5]; 31 g ai/ha, scale 0 to 100 (0 no effect, 100 complete control), read-out: Oat, Wild plant response rating",10%
same,pest or weed control at 62 g/ha,"[5]; 62 g ai/ha, scale 0 to 100, 0 no effect, 100 complete control, read-out: Plant response rating, Oat, Wild",15%
same,pest or weed control at 125 g/ha,"[5]; 125 g ai/ha, scale 0 to 100, 0 no effect, 100 complete control, read-out: Plant response rating, Oat, Wild",15%
same,pest or weed control at 31 g/ha,"[6]; 31 g ai/ha, scale 0 to 100 (0 no effect, 100 complete control), read-out: Kochia plant response rating",100%
same,pest or weed control at 62 g/ha,"[6]; 62 g ai/ha, scale 0 to 100, 0 no effect, 100 complete control, read-out: Plant response rating, Kochia",100%
same,pest or weed control at 125 g/ha,"[6]; 125 g ai/ha, scale 0 to 100, 0 no effect, 100 complete control, read-out: Plant response rating, Kochia",100%
same,pest or weed control at 16 g/ha,"[7]; 16 g ai/ha, scale 0 to 100 (0 no effect, 100 complete control), read-out: Chickweed plant response rating",70%
same,pest or weed control at 31 g/ha,"[7]; 31 g ai/ha, scale 0 to 100 (0 no effect, 100 complete control), read-out: Chickweed plant response rating",80%
same,pest or weed control at 62 g/ha,"[7]; 62 g ai/ha, scale 0 to 100, 0 no effect, 100 complete control, read-out: Plant response rating, Chickweed",95%
same,pest or weed control at 125 g/ha,"[7]; 125 g ai/ha, scale 0 to 100, 0 no effect, 100 complete control, read-out: Plant response rating, Chickweed",100%
same,"Plant response rating, Blackgrass",[8]; [18],90
same,"Plant response rating, Blackgrass",[8]; [19],70
same,"Plant response rating, Galium",[9]; [18],100
same,"Plant response rating, Galium",[9]; [19],100
same,"Plant response rating, Ragweed",[10]; [20],0
same,"Plant response rating, Ragweed",[10]; [18],50
same,"Plant response rating, Ragweed",[10]; [19],20
same,Ragweed plant response rating,[10]; [21],20
same,"Plant response rating, Kochia",[11]; [20],90
same,"Plant response rating, Kochia",[11]; [18],100
same,"Plant response rating, Kochia",[11]; [19],100
same,Kochia plant response rating,[11]; [21],100
same,pest or weed control at 125 g/ha,"[12]; Echinochloa crus-galli, post-emergence, 240 h, 125 g ai/ha, postemergence, 0 to 100 scale, 0 no effect, 100 complete control, read-out: Plant response rating, Barnyardgrass",100%
same,pest or weed control at 31 g/ha,"[12]; Echinochloa crus-galli, post-emergence, 240 h, Postemergence, 0 to 100 scale (0 no effect, 100 complete control), read-out: Plant response rating, Barnyardgrass",40%
same,pest or weed control at 31 g/ha,"[12]; Echinochloa crus-galli, pre-emergence, 240 h, Preemergence, 0 to 100 scale where 0 is no effect and 100 is complete control, read-out: Plant response rating, Barnyardgrass",70%
same,Barnyardgrass plant response rating,[12]; [21],100
same,"Foxtail, Giant plant response rating",[13]; [21],100
same,pest or weed control at 125 g/ha,"[13]; Setaria faberi, post-emergence, 240 h, 125 g ai/ha, postemergence, 0 to 100 scale, 0 no effect, 100 complete control, read-out: Plant response rating, Foxtail, Giant",90%
same,pest or weed control at 31 g/ha,"[13]; Setaria faberi, post-emergence, 240 h, Postemergence, 0 to 100 scale (0 no effect, 100 complete control), read-out: Plant response rating, Foxtail, Giant",70%
same,pest or weed control at 31 g/ha,"[13]; Setaria faberi, pre-emergence, 240 h, Preemergence, 0 to 100 scale where 0 is no effect and 100 is complete control, read-out: Plant response rating, Foxtail, Giant",90%
same,pest or weed control at 125 g/ha,"[14]; Amaranthus retroflexus, post-emergence, 240 h, 125 g ai/ha, postemergence, 0 to 100 scale, 0 no effect, 100 complete control, read-out: Plant response rating, Pigweed",100%
same,pest or weed control at 31 g/ha,"[14]; Amaranthus retroflexus, post-emergence, 240 h, Postemergence, 0 to 100 scale (0 no effect, 100 complete control), read-out: Plant response rating, Pigweed",100%
same,pest or weed control at 31 g/ha,"[14]; Amaranthus retroflexus, pre-emergence, 240 h, Preemergence, 0 to 100 scale where 0 is no effect and 100 is complete control, read-out: Plant response rating, Pigweed",100%
same,Pigweed plant response rating,[14]; [21],100
same,"Corn plant response rating (crop injury, 0 = no effect, 100 = complete kill) at 125 g/ha",[15]; [18],70%
same,"Corn plant response rating (crop injury, 0 = no effect, 100 = complete kill) at 31 g/ha",[15]; [19],30%
same,"Plant response rating, Ryegrass, Italian",[16]; [20],0
same,"Plant response rating, Ryegrass, Italian",[16]; [18],80
same,"Plant response rating, Ryegrass, Italian",[16]; [19],20
same,"Ryegrass, Italian plant response rating",[16]; [21],40
same,plant injury at 125 g/ha,[17]; [18],70%
same,plant injury at 31 g/ha,[17]; [19],20%

# Reference: patent US10131652B2, “Pyrimidinyloxy benzene derivatives as herbicides” (E. I. DU PONT DE NEMOURS AND COMPANY, priority 2014, dated 2018)
